Measured values as given in PubChem BioAssay AID2060891 (Molecular Pharmacology Branch, DTP, NCI, 2025).

Tested on: K98450-129-R-PDC complex spheroid growth, percent test/control
Experiment: Anticancer human tumor K98450-129-R-PDC patient-derived colon adenocarcinoma cell line growth inhibition [RAS]
Settings: for viability, T/C: stronger effect = lower value
In short: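 Tumour cells grown as complex spheroids with HUVEC endothelial cells and mesenchymal stem cells, treated with RAS pathway inhibitor combinations. Each agent spans half-log steps from near clinical Cmax, or 10 microM where Cmax is unknown.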
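Further: spheroids exposed to agents for seven days before the viability readout.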
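Wherever viability, T/C is given: luminescence used as a proxy for viable cell amount.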

In the case of `O=C(c1ccc(F)c(F)c1Nc1ccc(I)cc1F)N1CC(O)([C@@H]2CCCCN2)C1` + C=CC(=O)N1CCN(c2nc(OCC3CCCN3C)nc3c(F)c(-c4nc(N)cc(C)c4C(F)(F)F)c(Cl)cc23)C(C)C1, the IC50 (curve of first compound, second compound 0.00316 µM) is reported as 165 nM, the IC50 (curve of first compound, second compound 0.01 µM) is reported as 132 nM and the IC50 (curve of first compound, second compound 0.0316 µM) is reported as 106 nM. The IC50 (curve of first compound, second compound 0.1 µM) was 8.9 nM, the IC50 (curve of first compound, second compound 0.316 µM) was < 3.16 nM and the IC50 (curve of first compound, second compound 1 µM) was < 3.16 nM. The viability, T/C (second compound 0.00316 µM, first compound 0.00316 µM) was 91.1%, the viability, T/C (second compound 0.00316 µM, first compound 0.01 µM) was 96.7% and the viability, T/C (second compound 0.00316 µM, first compound 0.0316 µM) was 87.9%. For the same molecule, the viability, T/C (second compound 0.00316 µM, first compound 0.1 µM) was 78.3%, the viability, T/C (second compound 0.00316 µM, first compound 0.316 µM) was 13.7% and the viability, T/C (second compound 0.00316 µM, first compound 1 µM) was 2.87%. The viability, T/C (second compound 0.01 µM, first compound 0.00316 µM) was 86.3%, the viability, T/C (second compound 0.01 µM, first compound 0.01 µM) was 77.6% and the viability, T/C (second compound 0.01 µM, first compound 0.0316 µM) was 81.8%. It also gave a viability, T/C (second compound 0.01 µM, first compound 0.1 µM) of 63.1%, a viability, T/C (second compound 0.01 µM, first compound 0.316 µM) of 9.42% and a viability, T/C (second compound 0.01 µM, first compound 1 µM) of 3.09%. For the same molecule, the viability, T/C (second compound 0.0316 µM, first compound 0.00316 µM) was 72.8%, the viability, T/C (second compound 0.0316 µM, first compound 0.01 µM) was 64.5% and the viability, T/C (second compound 0.0316 µM, first compound 0.0316 µM) was 63.2%. The viability, T/C (second compound 0.0316 µM, first compound 0.1 µM) was 52.5%, the viability, T/C (second compound 0.0316 µM, first compound 0.316 µM) was 7.27% and the viability, T/C (second compound 0.0316 µM, first compound 1 µM) was 2.63%. For the same molecule, the viability, T/C (second compound 0.1 µM, first compound 0.00316 µM) was 55.2%, the viability, T/C (second compound 0.1 µM, first compound 0.01 µM) was 47.6% and the viability, T/C (second compound 0.1 µM, first compound 0.0316 µM) was 39%. For the same molecule, the viability, T/C (second compound 0.1 µM, first compound 0.1 µM) was 22.6%, the viability, T/C (second compound 0.1 µM, first compound 0.316 µM) was 5.51% and the viability, T/C (second compound 0.1 µM, first compound 1 µM) was 2.39%. For the same molecule, the viability, T/C (second compound 0.316 µM, first compound 0.00316 µM) was 34.2%, the viability, T/C (second compound 0.316 µM, first compound 0.01 µM) was 34.2% and the viability, T/C (second compound 0.316 µM, first compound 0.0316 µM) was 21.5%. For the same molecule, the viability, T/C (second compound 0.316 µM, first compound 0.1 µM) was 10.9%, the viability, T/C (second compound 0.316 µM, first compound 0.316 µM) was 4.66% and the viability, T/C (second compound 0.316 µM, first compound 1 µM) was 2.41%. The viability, T/C (second compound 1 µM, first compound 0.00316 µM) was 27.9%, the viability, T/C (second compound 1 µM, first compound 0.01 µM) was 24.1% and the viability, T/C (second compound 1 µM, first compound 0.0316 µM) was 16.3%. For the same molecule, the viability, T/C (second compound 1 µM, first compound 0.1 µM) was 9.12%, the viability, T/C (second compound 1 µM, first compound 0.316 µM) was 5% and the viability, T/C (second compound 1 µM, first compound 1 µM) was 2.46%.

`C[C@@H](NC(=O)c1ncnc(N)c1Cl)c1ncc(C(=O)Nc2cc(C(F)(F)F)c(Cl)cn2)s1` was tested, and the viability, T/C (compound 0.0316 µM) was 110% [middle of 4 runs], the viability, T/C (compound 0.316 µM) was 122% [middle of 4 runs] and the viability, T/C (compound 1 µM) was 126% [middle of 4 runs]. The viability, T/C (compound 10 µM) was 106% [middle of 4 runs] and the IC50 (curve of compound) was > 10000 nM.

With `C=CC(=O)Nc1cc(Nc2nccc(-c3cn(C)c4ccccc34)n2)c(OC)cc1N(C)CCN(C)C` + CCn1c(-c2cccnc2C(C)OC)c2c3cc(ccc31)N1CCOC(CC(NC(=O)C(C(C)C)N(C)C(=O)C3(F)CCN(C(=O)C#CC(C)(C)N(C)C)CC3)C(=O)N3CCCC(N3)C(=O)OCC(C)(C)C2)C1 the IC50 (curve of first compound, second compound 0.000949 µM) was 85 nM, the IC50 (curve of first compound, second compound 0.003 µM) was 21.5 nM and the IC50 (curve of first compound, second compound 0.00949 µM) was < 3.16 nM. For the same molecule, the IC50 (curve of first compound, second compound 0.03 µM) was < 3.16 nM, the IC50 (curve of first compound, second compound 0.0949 µM) was < 3.16 nM and the IC50 (curve of first compound, second compound 0.3 µM) was < 3.16 nM. The viability, T/C (second compound 0.000949 µM, first compound 0.00316 µM) was 76.9%, the viability, T/C (second compound 0.000949 µM, first compound 0.01 µM) was 63.9% and the viability, T/C (second compound 0.000949 µM, first compound 0.0316 µM) was 77.4%. For the same molecule, the viability, T/C (second compound 0.000949 µM, first compound 0.1 µM) was 44.5%, the viability, T/C (second compound 0.000949 µM, first compound 0.316 µM) was 20.1% and the viability, T/C (second compound 0.000949 µM, first compound 1 µM) was 8.96%. The viability, T/C (second compound 0.003 µM, first compound 0.00316 µM) was 59.5%, the viability, T/C (second compound 0.003 µM, first compound 0.01 µM) was 51.5% and the viability, T/C (second compound 0.003 µM, first compound 0.0316 µM) was 48.8%. For the same molecule, the viability, T/C (second compound 0.003 µM, first compound 0.1 µM) was 24.4%, the viability, T/C (second compound 0.003 µM, first compound 0.316 µM) was 14.3% and the viability, T/C (second compound 0.003 µM, first compound 1 µM) was 10.2%. The viability, T/C (second compound 0.00949 µM, first compound 0.00316 µM) was 39.2%, the viability, T/C (second compound 0.00949 µM, first compound 0.01 µM) was 41.6% and the viability, T/C (second compound 0.00949 µM, first compound 0.0316 µM) was 28.4%. The viability, T/C (second compound 0.00949 µM, first compound 0.1 µM) was 20.9%, the viability, T/C (second compound 0.00949 µM, first compound 0.316 µM) was 11.1% and the viability, T/C (second compound 0.00949 µM, first compound 1 µM) was 8.95%. For the same molecule, the viability, T/C (second compound 0.03 µM, first compound 0.00316 µM) was 37%, the viability, T/C (second compound 0.03 µM, first compound 0.01 µM) was 30.9% and the viability, T/C (second compound 0.03 µM, first compound 0.0316 µM) was 28.4%. The viability, T/C (second compound 0.03 µM, first compound 0.1 µM) was 18.1%, the viability, T/C (second compound 0.03 µM, first compound 0.316 µM) was 9.5% and the viability, T/C (second compound 0.03 µM, first compound 1 µM) was 9.54%. For the same molecule, the viability, T/C (second compound 0.0949 µM, first compound 0.00316 µM) was 34%, the viability, T/C (second compound 0.0949 µM, first compound 0.01 µM) was 32.4% and the viability, T/C (second compound 0.0949 µM, first compound 0.0316 µM) was 26.2%. The viability, T/C (second compound 0.0949 µM, first compound 0.1 µM) was 16.2%, the viability, T/C (second compound 0.0949 µM, first compound 0.316 µM) was 11% and the viability, T/C (second compound 0.0949 µM, first compound 1 µM) was 9%. For the same molecule, the viability, T/C (second compound 0.3 µM, first compound 0.00316 µM) was 34%, the viability, T/C (second compound 0.3 µM, first compound 0.01 µM) was 28.9% and the viability, T/C (second compound 0.3 µM, first compound 0.0316 µM) was 25.3%. For the same molecule, the viability, T/C (second compound 0.3 µM, first compound 0.1 µM) was 16.5%, the viability, T/C (second compound 0.3 µM, first compound 0.316 µM) was 10.1% and the viability, T/C (second compound 0.3 µM, first compound 1 µM) was 9.52%.
